# Key:
# [1] = target: T1, Amine oxidase [flavin-containing] A (Homo sapiens, UniProt P21397); experiment: Inhibition of human recombinant microsomal MAO-A expressed in baculovirus-infected insect BTI-TN-5B1-4 cells assessed as p-tyramine conversion to H2O2 by fluorescence assay
# T1 sequence (P21397 whole entry): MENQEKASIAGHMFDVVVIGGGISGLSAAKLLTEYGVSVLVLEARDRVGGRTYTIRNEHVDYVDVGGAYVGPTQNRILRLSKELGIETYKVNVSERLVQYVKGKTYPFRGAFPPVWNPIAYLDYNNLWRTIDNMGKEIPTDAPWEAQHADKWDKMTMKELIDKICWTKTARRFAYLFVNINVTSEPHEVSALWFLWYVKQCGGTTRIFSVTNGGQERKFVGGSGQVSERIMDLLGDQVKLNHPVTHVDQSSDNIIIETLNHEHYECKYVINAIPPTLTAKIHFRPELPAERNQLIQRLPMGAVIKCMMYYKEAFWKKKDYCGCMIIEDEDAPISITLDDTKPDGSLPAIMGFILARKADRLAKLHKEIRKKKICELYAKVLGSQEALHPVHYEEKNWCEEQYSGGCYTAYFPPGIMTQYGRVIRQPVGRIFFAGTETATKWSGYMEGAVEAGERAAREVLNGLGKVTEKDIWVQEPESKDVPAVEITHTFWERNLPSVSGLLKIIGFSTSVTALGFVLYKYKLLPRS
# [2] = target: T2, Amine oxidase [flavin-containing] B (Homo sapiens, UniProt P27338); experiment: Inhibition of human recombinant microsomal MAO-B expressed in baculovirus-infected insect BTI-TN-5B1-4 cells at 100 uM assessed as p-tyramine conversion to H2O2 by fluorescence assay; conditions: for inhibition (INH): human, bti-tn-5b1-4, 100 µM; for inhibition at 100 µM: BTI-TN-5B1-4, human
# T2 sequence (P27338 whole entry): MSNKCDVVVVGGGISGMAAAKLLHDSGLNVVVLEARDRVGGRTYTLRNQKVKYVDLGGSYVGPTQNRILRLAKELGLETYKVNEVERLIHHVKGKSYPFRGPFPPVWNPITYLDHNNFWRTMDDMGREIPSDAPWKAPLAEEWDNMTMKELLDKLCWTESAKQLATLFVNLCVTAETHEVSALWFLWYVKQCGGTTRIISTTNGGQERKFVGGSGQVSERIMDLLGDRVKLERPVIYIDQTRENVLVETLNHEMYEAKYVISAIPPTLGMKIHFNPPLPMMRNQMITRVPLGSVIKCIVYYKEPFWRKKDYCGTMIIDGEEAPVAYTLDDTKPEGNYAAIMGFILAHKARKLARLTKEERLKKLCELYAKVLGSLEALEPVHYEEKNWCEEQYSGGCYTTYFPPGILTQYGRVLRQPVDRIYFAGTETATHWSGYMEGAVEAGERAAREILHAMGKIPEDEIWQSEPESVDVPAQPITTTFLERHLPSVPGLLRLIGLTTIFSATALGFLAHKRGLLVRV
# [3] = target: T2, Amine oxidase [flavin-containing] B; experiment: biochemical; assay type: cell-based, BTI-TN-5B1-4
# Description: Inhibition of human recombinant microsomal MAO-B expressed in baculovirus-infected insect BTI-TN-5B1-4 cells assessed as p-tyramine conversion to H2O2 by fluorescence assay
# [4] = target: T1, Amine oxidase [flavin-containing] A; experiment: Inhibition of human recombinant microsomal MAO-A expressed in baculovirus-infected insect BTI-TN-5B1-4 cells at 100 uM assessed as p-tyramine conversion to H2O2 by fluorescence assay; conditions: for inhibition at 100 µM: BTI-TN-5B1-4, human; for inhibition (INH): human, bti-tn-5b1-4, 100 µM
# Homo sapiens = organism: Homo sapiens; experiment: Selectivity index, ratio of IC50 for human MAO-A to IC50 for human MAO-B
# [5] = target: T2, Amine oxidase [flavin-containing] B; experiment: Ratio of selegiline IC50 to compound IC50 for human MAO-B
# [6] = target: Amine oxidase [flavin-containing] B (Homo sapiens) (UniProt P27338); experiment: Ratio of moclobemide IC50 to compound IC50 for human MAO-B
# [7] = target: T1, Amine oxidase [flavin-containing] A; experiment: Ratio of clorgyline IC50 to compound IC50 for human MAO-A
# [8] = target: T2, Amine oxidase [flavin-containing] B; experiment: Ratio of clorgyline IC50 to compound IC50 for human MAO-B
# [9] = target: Amine oxidase [flavin-containing] B (Homo sapiens) (UniProt P27338); experiment: Ratio of iproniazid IC50 to compound IC50 for human MAO-B
# [10] = target: Amine oxidase [flavin-containing] B (Homo sapiens) (UniProt P27338); experiment: Ratio of selegiline IC50 to compound IC50 for human MAO-B
SMILES,IC50 [1] [µM],IC50 [3] [µM],Ratio IC50 (Homo sapiens),also measured
CN1N=C(c2ccc(O)cc2O)CC1c1ccc(F)cc1 (stereo unspecified),0.81,,,
O=C(NCCN1CCOCC1)c1ccc(Cl)cc1 [MOCLOBEMIDE],,,,inhibition (INH) [2]: Not Active
CN1N=C(c2ccc(O)cc2O)CC1c1ccccc1F (stereo unspecified),,3.87,> 26,inhibition at 100 µM [4]: 40%
CN1N=C(c2ccccc2)CC1c1ccccc1Cl (stereo unspecified),,3.65,> 27,inhibition (INH) [4]: Not Active
Cc1ccccc1C1CC(c2ccc(O)cc2)=NN1C (stereo unspecified),21.9,20.1,1.1,
Cc1ccccc1C1CC(c2ccc(O)cc2O)=NN1C (stereo unspecified),3.98,2.04,1.9,
Cc1ccccc1C1CC(c2ccccc2)=NN1C (stereo unspecified),3.26,0.11,30,
CN1N=C(c2ccc(O)cc2)CC1c1ccccc1F (stereo unspecified),,3.04,> 33,inhibition at 100 µM [4]: 40%
CN1N=C(c2ccccc2)CC1c1ccc(F)cc1 (stereo unspecified),3,0.14,21,
CN1N=C(c2ccc(O)cc2O)CC1c1cccc(F)c1 (stereo unspecified),,,,inhibition (INH) [2]: Not Active; inhibition (INH) [4]: Not Active
Cc1ccc(C2CC(c3ccc(O)cc3O)=NN2C)cc1 (stereo unspecified),,,,inhibition at 100 µM [2]: 40%; inhibition at 100 µM [4]: 40%
CN1N=C(c2ccc(O)cc2)CC1c1ccc(Cl)cc1 (stereo unspecified),12.7,2.64,4.8,
Cc1ccc(C2CC(c3ccc(O)cc3)=NN2C)cc1 (stereo unspecified),9.13,1.91,4.8,
CN1N=C(c2ccccc2)CC1c1ccccc1 (stereo unspecified),1.68,0.12,14,
CN1N=C(c2ccc(O)cc2O)CC1c1ccccc1Cl (stereo unspecified),1.1,0.3,3.7,
CN1N=C(c2ccc(O)cc2O)CC1c1ccc(Cl)cc1 (stereo unspecified),1.39,0.34,4.1,

SMILES,IC50 [1] [µM],IC50 [3] [µM],Ratio IC50 (Homo sapiens),also measured
CN1N=C(c2ccc(O)cc2)CC1c1ccc(F)cc1 (stereo unspecified),,3.65,> 27,inhibition at 100 µM [4]: 40%
CN1N=C(c2ccccc2)CC1c1ccccc1F (stereo unspecified),2.84,0.28,10,
CN1N=C(c2ccc(O)cc2O)CC1c1cccc(Cl)c1 (stereo unspecified),0.42,0.18,2.3,
CN1N=C(c2ccccc2)CC1c1cccc(F)c1 (stereo unspecified),1.82,0.06,30,
CN1N=C(c2ccc(O)cc2O)CC1c1ccccc1 (stereo unspecified),,,,inhibition at 100 µM [2]: 40%; inhibition at 100 µM [4]: 40%
Cc1cccc(C2CC(c3ccc(O)cc3O)=NN2C)c1 (stereo unspecified),,,,inhibition at 100 µM [2]: 40%; inhibition at 100 µM [4]: 40%
Cc1cccc(C2CC(c3ccc(O)cc3)=NN2C)c1 (stereo unspecified),16.3,5.78,2.8,
CN1N=C(c2ccccc2)CC1c1ccc(Cl)cc1 (stereo unspecified),,3.95,> 25,inhibition (INH) [4]: Not Active
CN1N=C(c2ccc(O)cc2)CC1c1cccc(Cl)c1 (stereo unspecified),18.7,2.07,9,
CN1N=C(c2ccc(O)cc2)CC1c1cccc(F)c1 (stereo unspecified),,3.17,> 31,inhibition at 100 µM [4]: 40%
Cc1cccc(C2CC(c3ccccc3)=NN2C)c1 (stereo unspecified),,0.11,> 909,inhibition at 100 µM [4]: 40%
CN1N=C(c2ccc(O)cc2)CC1c1ccccc1Cl (stereo unspecified),11.8,10.4,1.1,
Cc1ccc(C2CC(c3ccccc3)=NN2C)cc1 (stereo unspecified),1.39,0.0096,145,Ratio IC50 [5]: ≥ 2; Ratio IC50 [6]: <= 2; Ratio IC50 [7]: <= 2; Ratio IC50 [8]: ≥ 2; Ratio IC50 [9]: <= 2; Ratio IC50 [10]: <= 2
CN1N=C(c2ccc(O)cc2)CC1c1ccccc1 (stereo unspecified),,26.8,> 3.7,inhibition at 100 µM [4]: 40%
CN1N=C(c2ccccc2)CC1c1cccc(Cl)c1 (stereo unspecified),51,0.84,61,
